Reference: patent publication US8945853B2, “Detection of intracellular binding events by measuring protein abundance” (DiscoveRx Corporation, priority 2012, dated 2015)
Blank lines part the entries; values can stand above or below the molecule they belong to.

Tests used:
CYP 17A-PL fusion = CYP 17A-PL fusion (Homo sapiens, UniProt P05093); experiment: CYP17A-PL fusion stabilization in HEK cells (FIG. 11); assay type: cell-based
Procedure: (§1) HEK cells were transduced with fusion protein expression construct. The cells were then treated with different compounds for 3-6 hrs at 37° C. the fusion proteins were then quantified to analyze the effect of different compounds on the stabilization of fusion proteins.

BCL-2 / PL-Bax = BCL-2 / PL-Bax (Homo sapiens, UniProt P10415); experiment: BCL-2 co-expressed with PL-Bax in U2OS cells, disruption by small molecules (FIG. 7A); assay type: cell-based; details: for HillSlope / Bottom (best-fit) / Top (best-fit): PL-Bax; for Bottom (best-fit) / Top (best-fit) / effect on BCL-2 stabilization of Bax: U2OS, overnight; for Bottom (best-fit) / Top (best-fit): luminescence
Procedure: (§2) Interaction of BCL-2 with a peptide test compound (Bim, Bak, and Bax) was studied.
(§3) The native BCL-2 was co-expressed with each of the ProLabel fusions in U2OS cells. Small molecules that are reported to disrupt BCL-2 interactions were then applied to the cells and incubated overnight.
(§4) Cells were transduced with the indicated target PL-fusion and the untagged protein Bcl-2. The cells were treated with the indicated compounds overnight and the remaining target-PL fusion was detected by lysing the cells in the presence of EA and substrate. Luminescence was measured 30 minutes later.

BCL-2 / PL-Bim = BCL-2 / PL-Bim (Homo sapiens, UniProt P10415); experiment: BCL-2 co-expressed with PL-Bim in U2OS cells, disruption by small molecules (FIG. 7B); assay type: cell-based; details: for HillSlope / Bottom (best-fit) / Top (best-fit): PL-Bim; for Bottom (best-fit) / Top (best-fit) / effect on BCL-2/Bim stabilization: U2OS, overnight; for Bottom (best-fit) / Top (best-fit): luminescence
Procedure: as §2, §3, §4

BCL-2 / PL-Bak = BCL-2 / PL-Bak (Homo sapiens, UniProt P10415); experiment: BCL-2 co-expressed with PL-Bak in U2OS cells, disruption by small molecules (FIG. 7C); assay type: cell-based
Procedure: as §2, §3, §4

BLK (241-494)-PL fusion [1] = target: T1, BLK (241-494)-PL fusion (Homo sapiens, UniProt P51451); experiment: Specificity of binding compounds, BLK-PL fusion in U2OS cells (FIG. 9B); assay type: cell-based; design: BLK peptide containing amino acids from 241-494 were fused with the PL; expressed in transfected cells
BLK (241-494)-PL fusion [2] = target: T1, BLK (241-494)-PL fusion; experiment: BLK-PL fusions of varying sequence length treated with dasatinib, EFC chemiluminescence; assay type: cell-based; design: BLK peptide containing amino acids from 241-494 were fused with the PL; expressed in transfected cells; HEK cells are also named; details: 241-494 fusion compared with the other BLK sequence lengths; 3 hours
Procedure: A number of fusions were constructed that included varying amounts of the protein sequence centered around the kinase active site as defined by homology to other kinases. E.g. fusion containing protein BLK amino acid numbers 241-494, 246-494, 251-494, 256-494, 261-494 and 266-494 were made.
The expression construct containing the fusion protein was used to transduce the HEK cells. The cells were then incubated in the presence of dasatinib for 3 hours.
BLK-PL fusions were then quantified by adding lysis buffer, EA and chemiluminescent substrate. […] Dasatinib, N-(2-chloro-6-methylphenyl)-2-[[6-[4-(2-hydroxyethyl)-1-piperazinyl]-2-methyl-4-pyrimidinyl]amino]-5-thiazole carboxamide monohydrate, is an oral multi-BCR/ABL and Src family tyrosine kinase inhibitor approved for use in patients with chronic myelogenous leukemia (CML).
Results showing the binding of dasatinib to BLK containing amino acid sequence 241-494 are depicted in FIG. 3. The expression plasmids (e.g. 241-494) indicated in the legend are named to show the amino acid locations of the start and stop of the BLK sequence used. The plasmids were used to transduce parental U2OS cells. The cells were then treated with dasatanib for 3 hrs and the BLK-PL fusions were quantified by adding lysis buffer, EA and chemiluminescent substrate.

[3] = target: T2, CYP 19A amino acids 1-503-PL fusion (Homo sapiens, UniProt P11511); experiment: CYP19A-PL fusion stabilization in HEK cells; assay type: cell-based; details: data not shown
T2 construct: expressed in transfected cells; host or cells: HEK
T2 sequence (P11511 1-503): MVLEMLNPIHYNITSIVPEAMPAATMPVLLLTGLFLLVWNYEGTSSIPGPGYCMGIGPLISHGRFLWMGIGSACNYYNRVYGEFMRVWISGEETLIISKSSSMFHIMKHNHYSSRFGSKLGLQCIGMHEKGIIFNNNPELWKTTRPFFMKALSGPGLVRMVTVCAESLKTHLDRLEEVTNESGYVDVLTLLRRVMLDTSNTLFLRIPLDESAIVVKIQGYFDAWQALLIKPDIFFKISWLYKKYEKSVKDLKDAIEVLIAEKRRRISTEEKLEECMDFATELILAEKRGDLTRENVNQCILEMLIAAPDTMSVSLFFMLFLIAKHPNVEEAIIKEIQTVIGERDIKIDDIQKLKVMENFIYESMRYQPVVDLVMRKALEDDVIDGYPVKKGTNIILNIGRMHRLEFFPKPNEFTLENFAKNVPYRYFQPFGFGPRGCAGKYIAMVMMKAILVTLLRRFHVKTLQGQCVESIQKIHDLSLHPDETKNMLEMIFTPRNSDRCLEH
Procedure: as §1
Arimidex® anastrazole is available from AstraZeneca and is known to bind to aromatase. YM511 (chemical Name: 4-[[(4-Bromophenyl)methyl]-4H-1,2,4-triazol-4-ylamino]benzonitrile) is also an aromatase inhibitor. CYP19 is also known as aromatase.

BRD4 (1)-PL fusion = experiment: Bromodomain-PL fusion stability in HEK cells; assay type: cell-based; details: 6 hrs at 37° C.
Procedure: To study the effect of compound binding, fusion proteins were prepared using fragments of BRD4 (1) (Accession No. NM_058243), BRD2 (1) (Accession No. NM_005104) and BRDT (1) (Accession No. NM_001242806) (SEQ ID NO. 13, 14 and 15 respectively) and prolabel (PL). The expression construct containing the fusion proteins were used to transducer the HEK cells. Cells were plated in a 384 well-plate and incubated overnight at 37° C./5% CO2 to allow the cells to attach and gro.

G9A(918-1198)-PL = G9A(918-1198)-PL (Homo sapiens, UniProt Q96KQ7); experiment: Half-life of G9A catalytic domain-PL fusion in A549 cells after cycloheximide (FIG. 10); assay type: cell-based, humans
Procedure: Methyltransferases are a group of transferases enzymes involved in DNA methylation. G9a methyltransferase methylates lysine 9 of histone H3 and is present in humans.
The enzyme donor PL fused to the catalytic domain of G9A was expressed in A549 cells, which were plated I a 384-well plate and incubated overnight at 37° C./5% CO2 to allow the cells to attach and grow. […] Both the batches were then treated with cycloheximide to prevent further protein production and the half-life of the fusion protein in both the batches were calculated as shown in FIG. 10. […] UNC0638 is commercially available and is an inhibitor of G9a/GLP methyltransferases. See, e.g. http (colon slash slash) apps.thesgc.org/chemical_probes/UNC0638/#overview, SGC product literature.

[4] = PL-Bak, U2OS, overnight, luminescence

CYP 17A-PL fusion, sequence (P05093 with tags, fused parts or gaps): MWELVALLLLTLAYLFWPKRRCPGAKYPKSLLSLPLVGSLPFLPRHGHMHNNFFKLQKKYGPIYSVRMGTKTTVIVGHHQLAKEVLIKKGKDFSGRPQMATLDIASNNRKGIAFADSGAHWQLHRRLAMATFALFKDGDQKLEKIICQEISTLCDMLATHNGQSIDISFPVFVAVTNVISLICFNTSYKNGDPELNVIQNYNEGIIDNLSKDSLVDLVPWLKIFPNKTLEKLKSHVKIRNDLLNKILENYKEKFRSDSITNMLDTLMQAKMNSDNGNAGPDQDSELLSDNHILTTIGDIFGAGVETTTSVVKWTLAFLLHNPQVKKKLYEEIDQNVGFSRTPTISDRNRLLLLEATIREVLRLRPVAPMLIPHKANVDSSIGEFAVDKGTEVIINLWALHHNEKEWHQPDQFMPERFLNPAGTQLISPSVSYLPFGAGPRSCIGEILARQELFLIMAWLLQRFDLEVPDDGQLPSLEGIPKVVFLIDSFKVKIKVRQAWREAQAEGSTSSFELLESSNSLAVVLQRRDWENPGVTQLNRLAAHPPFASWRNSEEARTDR
T1 sequence (P51451 241-494): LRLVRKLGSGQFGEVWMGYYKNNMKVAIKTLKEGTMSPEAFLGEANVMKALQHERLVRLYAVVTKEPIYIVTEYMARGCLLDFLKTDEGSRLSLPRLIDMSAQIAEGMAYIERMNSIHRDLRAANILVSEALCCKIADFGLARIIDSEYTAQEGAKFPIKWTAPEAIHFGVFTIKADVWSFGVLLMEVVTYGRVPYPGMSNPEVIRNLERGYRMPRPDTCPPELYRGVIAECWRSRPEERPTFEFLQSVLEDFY
BCL-2 / PL-Bim, sequence (P10415 whole entry): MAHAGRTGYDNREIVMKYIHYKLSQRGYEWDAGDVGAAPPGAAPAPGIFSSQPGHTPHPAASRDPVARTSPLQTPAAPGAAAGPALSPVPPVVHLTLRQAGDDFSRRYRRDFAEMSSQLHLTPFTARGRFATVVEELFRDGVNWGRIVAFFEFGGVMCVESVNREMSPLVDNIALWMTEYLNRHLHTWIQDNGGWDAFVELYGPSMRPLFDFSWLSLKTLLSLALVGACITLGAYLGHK
BCL-2 / PL-Bak, sequence (P10415 whole entry): as above
BCL-2 / PL-Bax, sequence (P10415 whole entry): as above
G9A(918-1198)-PL, sequence (Q96KQ7 with tags, fused parts or gaps): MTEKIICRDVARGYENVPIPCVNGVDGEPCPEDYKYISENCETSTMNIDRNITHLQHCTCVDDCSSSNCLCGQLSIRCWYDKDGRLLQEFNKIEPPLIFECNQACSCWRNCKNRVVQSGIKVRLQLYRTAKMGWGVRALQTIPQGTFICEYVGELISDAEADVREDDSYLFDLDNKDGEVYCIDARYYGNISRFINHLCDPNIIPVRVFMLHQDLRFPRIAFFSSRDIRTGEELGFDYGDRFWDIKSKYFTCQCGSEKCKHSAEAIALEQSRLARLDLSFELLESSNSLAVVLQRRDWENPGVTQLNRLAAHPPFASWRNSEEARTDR

Compound: CC1(C)CCC(c2ccc(Cl)cc2)=C(CN2CCN(c3ccc(C(=O)NS(=O)(=O)c4ccc(N[C@H](CCN5CCOCC5)CSc5ccccc5)c(S(=O)(=O)C(F)(F)F)c4)cc3)CC2)C1 [ABT-263]
HillSlope (BCL-2 / PL-Bax): −1.216 | Bottom (best-fit) (BCL-2 / PL-Bax): 5900 | Top (best-fit) (BCL-2 / PL-Bax): 31800 | effect on BCL-2 stabilization of Bax (BCL-2 / PL-Bax): somewhat similar effect | HillSlope (BCL-2 / PL-Bim): −1.635 | Bottom (best-fit) (BCL-2 / PL-Bim): 6740 | Top (best-fit) (BCL-2 / PL-Bim): 136900 | effect on BCL-2/Bim stabilization (BCL-2 / PL-Bim): prevented the stabilizing effect | HillSlope (BCL-2 / PL-Bak; PL-Bak): −0.4082 | Bottom (best-fit) (BCL-2 / PL-Bak; [4]): −14342 | effect on BCL-2 binding to and stabilization of Bak (BCL-2 / PL-Bak; overnight, U2OS): little effect

Compound: Cc1nc(Nc2ncc(C(=O)Nc3c(C)cccc3Cl)s2)cc(N2CCN(CCO)CC2)n1.O [dasatinib, N-(2-chloro-6-methylphenyl)-2-[[6-[4-(2-hydroxyethyl)-1-piperazinyl]-2-methyl-4-pyrimidinyl]amino]-5-thiazole carboxamide monohydrate]
binding specificity (BLK (241-494)-PL fusion [1]; BLK-PL vs MEK-PL fusions): specific for binding to the BLK fusion containing the ATP binding site | signal (BLK-PL fusion) compared to cells incubated with U0126 and PD035901 (BLK (241-494)-PL fusion [1]; U2OS cells, over a period of time): gain in signal | affinity of BLK-PL fusion with dasatinib (BLK (241-494)-PL fusion [2]): highest affinity

Compound: CC(C)(C#N)c1cc(Cn2cncn2)cc(C(C)(C)C#N)c1 [anastrazole]
stabilization of CYP 19A fusion peptide [3]: stabilized

Compound: Cc1sc2c(c1C)C(c1ccc(Cl)cc1)=N[C@@H](CC(=O)OC(C)(C)C)c1nnc(C)n1-2 [JQ1]
stability of fusion protein following compound binding (BRD4 (1)-PL fusion): increase in stability

Compound: N#Cc1ccc(N(Cc2ccc(Br)cc2)n2cnnc2)cc1 [YM511, 4-[[(4-Bromophenyl)methyl]-4H-1,2,4-triazol-4-ylamino]benzonitrile]
stabilization of CYP 19A fusion peptide [3]: stabilized

Compound: CN(C)CC[C@H](CSc1ccccc1)Nc1ccc(S(=O)(=O)NC(=O)c2ccc(N3CCN(Cc4ccccc4-c4ccc(Cl)cc4)CC3)cc2)cc1[N+](=O)[O-] [ABT-737]
HillSlope (BCL-2 / PL-Bax): −1.485 | Bottom (best-fit) (BCL-2 / PL-Bax): 6973 | Top (best-fit) (BCL-2 / PL-Bax): 31292 | effect on BCL-2 stabilization of Bax (BCL-2 / PL-Bax): somewhat similar effect | HillSlope (BCL-2 / PL-Bim): −1.898 | Bottom (best-fit) (BCL-2 / PL-Bim): 7774 | Top (best-fit) (BCL-2 / PL-Bim): 139290 | effect on BCL-2/Bim stabilization (BCL-2 / PL-Bim): prevented the stabilizing effect | HillSlope (BCL-2 / PL-Bak; PL-Bak): −0.5348 | Bottom (best-fit) (BCL-2 / PL-Bak; [4]): 5446 | Top (best-fit) (BCL-2 / PL-Bak; [4]): 11602 | effect on BCL-2 binding to and stabilization of Bak (BCL-2 / PL-Bak; overnight, U2OS): little effect

Further lines, results first:

EC50 (CYP 17A-PL fusion; stabilization, gain of signal): 252 pM
Compound: C[C@]12CC[C@H](O)CC1=CC[C@@H]1[C@@H]2CC[C@]2(C)C(c3cccnc3)=CC[C@@H]12 [Abiraterone]

HillSlope (CYP 17A-PL fusion): 1083 | stabilization of CYP 17 A domain fusion (CYP 17A-PL fusion; HEK cells, 3-6 hrs): stabilization | Bottom (best-fit) (CYP 17A-PL fusion; HEK cells, 3-6 hrs at 37° C.): 1.230e+006 | Top (best-fit) (CYP 17A-PL fusion; HEK cells, 3-6 hrs at 37° C.): 2.348e+006
Compound: CC(=O)N1CCN(c2ccc(OCC3COC(Cn4ccnc4)(c4ccc(Cl)cc4Cl)O3)cc2)CC1 (stereo not drawn) [Ketoconazole]

half-life of fusion protein compared to fusion protein not exposed to the binding partner (G9A(918-1198)-PL; A549 cells, cycloheximide): greater | percent change in luminescence (G9A(918-1198)-PL; after 100 minutes of cycloheximide, A549 cells pretreated 6 hrs): minimal
Compound: COc1cc2c(NC3CCN(C(C)C)CC3)nc(C3CCCCC3)nc2cc1OCCCN1CCCC1 [UNC0638]
